From ChEMBL document CHEMBL1147545, “Synthesis and monoamine transporter affinity of 3'-analogs of 2-beta-carbomethoxy-3-beta-(4'-iodophenyl)tropane (beta-CIT)” (Bioorg Med Chem Lett, 2004)

Experiments:
[1] = target: Sodium-dependent serotonin transporter (Homo sapiens, UniProt P31645); assay: Binding affinity to serotonin transporter (SERT) in membranes of cells selectively expressing the human genes for SERT; type: cell membranes
[2] = target: Sodium-dependent noradrenaline transporter (Homo sapiens, UniProt P23975); assay: Binding affinity to norepinephrine (NE) transporter in membranes of cells selectively expressing the human genes for NET; type: cell membranes
Sodium-dependent noradrenaline transporter, sequence (P23975 whole entry): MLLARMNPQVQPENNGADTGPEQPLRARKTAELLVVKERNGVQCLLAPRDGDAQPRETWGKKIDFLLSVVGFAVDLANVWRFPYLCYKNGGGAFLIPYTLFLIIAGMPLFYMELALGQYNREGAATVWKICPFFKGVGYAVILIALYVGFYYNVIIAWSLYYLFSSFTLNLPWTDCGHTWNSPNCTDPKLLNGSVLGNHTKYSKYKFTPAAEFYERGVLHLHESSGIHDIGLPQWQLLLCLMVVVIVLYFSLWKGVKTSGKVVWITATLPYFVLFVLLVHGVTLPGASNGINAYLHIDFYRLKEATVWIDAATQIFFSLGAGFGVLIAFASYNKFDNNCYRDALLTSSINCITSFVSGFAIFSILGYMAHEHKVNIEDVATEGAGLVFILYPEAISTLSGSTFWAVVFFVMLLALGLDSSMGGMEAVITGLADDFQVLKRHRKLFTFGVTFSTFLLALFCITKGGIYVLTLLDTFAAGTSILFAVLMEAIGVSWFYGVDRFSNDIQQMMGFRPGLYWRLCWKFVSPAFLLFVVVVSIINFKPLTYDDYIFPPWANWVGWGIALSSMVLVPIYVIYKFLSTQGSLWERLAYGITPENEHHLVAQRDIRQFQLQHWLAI

[3] = target: Monoamine transporters; serotonin & dopamine (Homo sapiens) (UniProt P31645+Q01959); assay: Binding selectivity ratio at human serotonin transporter versus dopamine transporter (hSERT/hDAT); type: protein assay
Monoamine transporters; serotonin & dopamine (Homo sapiens), sequence (P31645 whole entry, looked up): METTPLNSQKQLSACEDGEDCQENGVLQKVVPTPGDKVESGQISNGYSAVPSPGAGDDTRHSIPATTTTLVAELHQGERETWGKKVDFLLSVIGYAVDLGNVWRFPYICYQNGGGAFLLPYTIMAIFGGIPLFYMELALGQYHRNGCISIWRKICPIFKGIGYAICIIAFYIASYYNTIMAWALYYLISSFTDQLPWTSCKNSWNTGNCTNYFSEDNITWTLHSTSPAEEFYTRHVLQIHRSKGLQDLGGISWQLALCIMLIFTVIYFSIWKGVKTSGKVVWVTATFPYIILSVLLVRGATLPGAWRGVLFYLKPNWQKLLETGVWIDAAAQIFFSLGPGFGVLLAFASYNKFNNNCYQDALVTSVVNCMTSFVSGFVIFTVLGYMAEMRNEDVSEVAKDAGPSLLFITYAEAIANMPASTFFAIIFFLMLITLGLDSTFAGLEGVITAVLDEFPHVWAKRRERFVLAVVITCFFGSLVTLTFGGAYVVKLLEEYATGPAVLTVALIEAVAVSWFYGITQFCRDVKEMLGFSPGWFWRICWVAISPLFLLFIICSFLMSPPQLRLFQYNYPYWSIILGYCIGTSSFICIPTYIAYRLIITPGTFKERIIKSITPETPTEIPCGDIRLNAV
Monoamine transporters; serotonin & dopamine (Homo sapiens), sequence (Q01959 whole entry, looked up): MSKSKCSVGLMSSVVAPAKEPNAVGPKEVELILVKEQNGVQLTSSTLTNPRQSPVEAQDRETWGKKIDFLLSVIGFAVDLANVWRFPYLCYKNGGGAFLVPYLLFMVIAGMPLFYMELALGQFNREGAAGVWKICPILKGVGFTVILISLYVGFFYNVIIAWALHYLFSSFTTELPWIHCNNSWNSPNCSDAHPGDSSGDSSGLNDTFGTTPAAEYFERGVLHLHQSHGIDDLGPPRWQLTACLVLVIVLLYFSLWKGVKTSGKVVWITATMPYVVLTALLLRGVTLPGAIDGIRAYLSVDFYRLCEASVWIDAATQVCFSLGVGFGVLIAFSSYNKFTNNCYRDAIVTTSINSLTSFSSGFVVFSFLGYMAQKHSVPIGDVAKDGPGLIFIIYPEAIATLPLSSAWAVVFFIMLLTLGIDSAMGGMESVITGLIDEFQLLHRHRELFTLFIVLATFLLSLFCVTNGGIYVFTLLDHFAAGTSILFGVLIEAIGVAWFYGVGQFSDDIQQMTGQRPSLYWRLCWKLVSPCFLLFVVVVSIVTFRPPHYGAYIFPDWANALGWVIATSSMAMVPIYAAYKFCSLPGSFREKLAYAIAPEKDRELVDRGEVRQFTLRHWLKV

[4] = target: Sodium-dependent dopamine transporter (Rattus norvegicus, UniProt P23977); assay: Binding affinity to dopamine transporter (DAT) in rat forebrain tissue; type: tissue-based
Sodium-dependent dopamine transporter (Rattus norvegicus, UniProt P23977), sequence (P23977 whole entry): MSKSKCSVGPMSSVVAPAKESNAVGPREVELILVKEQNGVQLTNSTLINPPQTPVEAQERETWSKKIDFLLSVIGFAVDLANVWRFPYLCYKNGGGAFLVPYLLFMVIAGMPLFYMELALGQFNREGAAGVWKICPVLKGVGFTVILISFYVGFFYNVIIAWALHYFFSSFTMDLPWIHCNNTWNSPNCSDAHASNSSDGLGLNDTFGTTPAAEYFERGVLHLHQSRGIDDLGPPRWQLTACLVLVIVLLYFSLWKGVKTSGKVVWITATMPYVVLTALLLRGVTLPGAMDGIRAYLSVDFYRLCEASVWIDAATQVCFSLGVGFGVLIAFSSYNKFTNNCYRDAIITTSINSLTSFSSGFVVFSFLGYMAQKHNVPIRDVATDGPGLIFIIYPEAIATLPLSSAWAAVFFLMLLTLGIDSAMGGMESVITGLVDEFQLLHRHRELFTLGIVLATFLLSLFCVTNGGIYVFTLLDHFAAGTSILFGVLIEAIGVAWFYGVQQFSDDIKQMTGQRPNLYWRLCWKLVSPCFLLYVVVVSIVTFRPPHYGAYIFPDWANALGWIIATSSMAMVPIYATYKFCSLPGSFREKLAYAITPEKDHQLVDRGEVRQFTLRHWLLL

[5] = target: Sodium-dependent serotonin transporter (Rattus norvegicus, UniProt P31652); assay: Binding affinity to serotonin transporter (SERT) in rat forebrain tissue; type: tissue-based
Sodium-dependent serotonin transporter (Rattus norvegicus, UniProt P31652), sequence (P31652 whole entry): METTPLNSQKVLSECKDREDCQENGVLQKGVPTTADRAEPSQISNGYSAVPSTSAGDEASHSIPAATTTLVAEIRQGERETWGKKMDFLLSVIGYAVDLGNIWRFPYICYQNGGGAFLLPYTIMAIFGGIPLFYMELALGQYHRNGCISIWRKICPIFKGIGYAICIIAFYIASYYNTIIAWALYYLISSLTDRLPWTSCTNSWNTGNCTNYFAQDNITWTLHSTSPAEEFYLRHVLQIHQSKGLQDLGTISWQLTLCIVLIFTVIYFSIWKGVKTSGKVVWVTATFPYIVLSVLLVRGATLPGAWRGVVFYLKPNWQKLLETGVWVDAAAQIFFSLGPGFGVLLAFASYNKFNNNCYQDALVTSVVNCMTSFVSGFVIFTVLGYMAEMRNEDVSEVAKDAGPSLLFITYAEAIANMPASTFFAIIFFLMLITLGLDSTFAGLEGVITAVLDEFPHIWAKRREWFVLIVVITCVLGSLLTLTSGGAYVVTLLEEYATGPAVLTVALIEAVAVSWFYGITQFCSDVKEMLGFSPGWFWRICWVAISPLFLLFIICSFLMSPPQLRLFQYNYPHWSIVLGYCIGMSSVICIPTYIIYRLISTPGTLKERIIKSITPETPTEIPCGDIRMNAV

[6] = target: Sodium-dependent dopamine transporter (Homo sapiens, UniProt Q01959); assay: Binding affinity to dopamine transporter in membranes of cells selectively expressing the human genes for DAT; type: cell membranes
Sodium-dependent dopamine transporter (Homo sapiens, UniProt Q01959), sequence (Q01959 whole entry): as the sequence (Q01959 whole entry, looked up) above

[7] = target: Norepinephrine transporter (Rattus norvegicus, UniProt Q9WTR4); assay: Binding affinity to norepinephrine (NE) transporter in rat forebrain tissue; type: tissue-based
Norepinephrine transporter, sequence (Q9WTR4 whole entry): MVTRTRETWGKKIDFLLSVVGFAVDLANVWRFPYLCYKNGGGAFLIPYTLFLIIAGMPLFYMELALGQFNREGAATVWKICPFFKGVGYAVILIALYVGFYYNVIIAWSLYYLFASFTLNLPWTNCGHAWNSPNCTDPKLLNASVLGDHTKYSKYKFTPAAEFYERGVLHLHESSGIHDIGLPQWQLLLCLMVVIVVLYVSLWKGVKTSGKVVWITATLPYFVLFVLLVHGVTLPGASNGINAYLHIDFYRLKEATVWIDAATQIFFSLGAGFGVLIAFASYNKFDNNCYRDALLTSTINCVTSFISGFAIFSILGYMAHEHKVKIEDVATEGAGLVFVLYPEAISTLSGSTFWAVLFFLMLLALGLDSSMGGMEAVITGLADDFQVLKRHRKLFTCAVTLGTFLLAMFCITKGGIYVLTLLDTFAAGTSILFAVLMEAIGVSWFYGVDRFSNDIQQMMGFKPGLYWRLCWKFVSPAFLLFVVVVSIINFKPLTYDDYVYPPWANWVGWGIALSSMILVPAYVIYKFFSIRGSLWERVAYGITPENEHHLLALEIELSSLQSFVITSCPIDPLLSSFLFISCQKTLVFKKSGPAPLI

Sodium-dependent serotonin transporter (Homo sapiens, UniProt P31645), sequence (P31645 whole entry): as the sequence (P31645 whole entry, looked up) above

SMILES	Ki [1]	Ki [2]	Selectivity ratio [3]	Ki [4]	Ki [5]	Ki [6]	Ki [7]
COC(=O)C1C(c2cccc(-c3ccco3)c2)CC2CCC1N2C (stereo not drawn)	55.1 nM	3020 nM	0.98	30.8 nM	41.7 nM	54 nM	10000 nM
COC(=O)C1C2CCC(CC1c1ccc(I)cc1)N2 (stereo not drawn)	–	–	–	–	0.062 nM	–	–
COC(=O)C1C2CCC(CC1c1cccc(I)c1)N2 (stereo not drawn)	1.23 nM	118 nM	356	21.2 nM	1.35 nM	438 nM	282 nM
COC(=O)C1C(c2cccc(-c3ccsc3)c2)CC2CCC1N2C (stereo not drawn)	74.1 nM	> 20000 nM	0.402	23.7 nM	82.5 nM	29.8 nM	> 10000 nM
COC(=O)C1C(c2cccc(I)c2)CC2CCC1N2C (stereo not drawn)	9.63 nM	1040 nM	18.9	100 nM	9.82 nM	182 nM	> 10000 nM
COC(=O)C1C(c2cccc(-c3ccccc3)c2)CC2CCC1N2C (stereo not drawn)	38.6 nM	1360 nM	0.229	9.59 nM	35.2 nM	8.83 nM	> 10000 nM
COC(=O)[C@@H]1C2CC[C@H](C[C@@H]1c1ccc(I)cc1)N2C	–	11.2 nM	–	–	0.41 nM	–	–
